# Several values for one entry are separate records, joined by “and”; a condition that tells them apart may be missing. Equal entries are not always repeated. Where two headings read alike, the source gives them in different places.
# How the values were obtained:
# HT-29 = assay: cell viability in human CRC cell line HT-29; format: cell-based; conditions: ED Fig. 9h, replicates; for viability at 0.0137 µM / viability at 0.0412 µM / viability at 0.1235 µM / viability at 0.3704 µM / viability at 1.1111 µM / viability at 3.3333 µM / viability at 10 µM: Homo sapiens; for viability at 0.0137 µM: HT-29, read-out: HT-29 Cell viability (%), 0.0137 µM; for viability at 0.0412 µM: HT-29, read-out: HT-29 Cell viability (%), 0.0412 µM; for viability at 0.1235 µM: HT-29, read-out: HT-29 Cell viability (%), 0.1235 µM; for viability at 0.3704 µM: HT-29, read-out: HT-29 Cell viability (%), 0.3704 µM; for viability at 1.1111 µM: HT-29, read-out: HT-29 Cell viability (%), 1.1111 µM; for viability at 3.3333 µM: HT-29, read-out: HT-29 Cell viability (%), 3.3333 µM; for viability at 10 µM: HT-29, read-out: HT-29 Cell viability (%), 10.0000 µM
# Method: To generate KAP^2D cells, KAP organoids were isolated from Matrigel, fragmented by mechanical dissociation and plated without any extracellular matrix on common cell culture dishes. Phoenix-Eco packaging cells (CRL-3214), HCT-15 (CCL-225), HCT 116 (CCL-247), COLO 205 (CCL-222), LS 174T (CL-188), RKO (CRL-2577) and HT-29 (HTB-38) were obtained from the American Type Culture Collection. The cells were cultured at 37 °C and 7% CO2 with RPMI (KAP^2D cells) or DMEM (other cell lines), supplemented with 10% FBS and penicillin–streptomycin. KAP^2D cells were authenticated using PCR (Kras locus and Trp53 locus). Phoenix-Eco packaging cells and HCT-15, HCT 116, COLO 205, LS 174T, RKO and HT-29 cells were authenticated by the provider using short tandem repeat profiling. No commonly misidentified cell lines were used. Mycoplasma contamination was excluded by a PCR-based analysis.
# (§1) For in vitro treatment studies, organoids were mechanically dissociated and digested using TrypLE supplemented with 100 µg ml^−1 DNaseI and 10.5 µM Y-27632 dihydrochloride (Invitrogen) at 37 °C. A total of 1,000–2,000 single cells were plated per well in white 96-well plates (Greiner) in culture medium containing 10% GFR Matrigel or Cultrex BME. The treatment with doxycycline (5 µg ml^−1), pharmacological inhibitors or corresponding volumes of DMSO was started 24 h after plating. Doxycycline was obtained from Sigma-Aldrich. […] Cell viability was measured by means of CellTiter-Glo 3D or CellTiter-Glo 2.0 reagent (Promega) according to the manufacturers’ instructions and the Infinite M Plex reader (Tecan, i-control version 3.9.1 software). Results were normalized to vehicle (DMSO) or to shNC. For cell-doubling assays, the cell number was quantified at the corresponding time points using Guava EasyCyte flow cytometer (Luminex, CytoSoft v5.2 software).
# PDO6 = assay: cell viability in patient-derived CRC organoids PDO6; format: cell-based, human
# Method: as §1
# PDO15 = assay: cell viability in patient-derived CRC organoids PDO15; format: cell-based, human
# Method: as §1
# PDO7 = assay: cell viability in patient-derived CRC organoids PDO7; format: cell-based, human
# Method: as §1
# KAP^2D cells = assay: quantification of viable KAP^2D cells over time (cell-doubling assay); format: cell-based, mouse; conditions: Fig. 4i
# Method: The treatment with doxycycline (5 µg ml^−1), pharmacological inhibitors or corresponding volumes of DMSO was started 24 h after plating. […] Cell viability was measured by means of CellTiter-Glo 3D or CellTiter-Glo 2.0 reagent (Promega) according to the manufacturers’ instructions and the Infinite M Plex reader (Tecan, i-control version 3.9.1 software). Results were normalized to vehicle (DMSO) or to shNC. For cell-doubling assays, the cell number was quantified at the corresponding time points using Guava EasyCyte flow cytometer (Luminex, CytoSoft v5.2 software).
# KAP organoids = assay: cell viability in KAP organoids (CellTiter-Glo); format: cell-based, mouse
# Outline: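 Single cells (1,000–2,000/well) from TrypLE/DNaseI/Y-27632-digested organoids, grown in 10% GFR Matrigel or BME medium. Drug or DMSO added at 24 h post-plating. Read-out: CellTiter-Glo 3D or 2.0; values vs vehicle.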
smiles,measurement,setting,value
"O=C1c2ccc(Nc3ccc(F)cc3F)cc2CCc2ccc(OC[C@H](O)CO)cc21 [SKL, skepinone-L, reference compound]",HT-29 Cell viability (%),"HT-29; 3.3333 µM, first experiment",98.14% and 94.12%
same,HT-29 Cell viability (%),"HT-29; 10.0000 µM, Repetition",26.97% and 25.38%
same,HT-29 Cell viability (%),"HT-29; 10.0000 µM, first experiment",26.95% and 26.30%
same,viability at 0.0137 µM,HT-29; Repetition,95.8%
same,viability at 0.0137 µM,HT-29; first experiment,95.5%
same,viability at 0.0412 µM,HT-29; Repetition,92.3%
same,viability at 0.0412 µM,HT-29; first experiment,93.7%
same,viability at 0.1235 µM,HT-29; Repetition,91.3%
same,viability at 0.1235 µM,HT-29; first experiment,91.8%
same,viability at 0.3704 µM,HT-29; Repetition,97.9%
same,viability at 0.3704 µM,HT-29; first experiment,92.5%
same,viability at 1.1111 µM,HT-29; Repetition,99.2%
same,viability at 1.1111 µM,HT-29; first experiment,99.6%
same,viability at 3.3333 µM,HT-29; Repetition,93.3%
same,viability at 3.3333 µM,HT-29; first experiment,95.6%
same,viability at 10 µM,HT-29; Repetition,28.2%
same,viability at 10 µM,HT-29; first experiment,25.2%
same,viability at 1 µM,"PDO6; Homo sapiens, 96 h, read-out: Cell viability (%), PDO6, 1 µM, 4 days",112%
same,Cell viability (%),"PDO6; PDO6, 0.5 µM, 4 d, 0.5 µM",101.15% and 118.77% and 80.46%
same,Cell viability (%),"PDO6; PDO6, 1 µM, 4 days, 1 µM",110.32% and 93.07%
same,viability at 0.5 µM,"PDO15; Homo sapiens, 96 h, read-out: Cell viability (%), PDO15, 0.5 µM, 4 d",98%
same,viability at 1 µM,"PDO15; Homo sapiens, 96 h, read-out: Cell viability (%), PDO15, 1 µM, 4 days",106%
same,Cell viability (%),"PDO15; PDO15, 0.5 µM, 4 d, 0.5 µM",99.16% and 105.27%
same,Cell viability (%),"PDO15; PDO15, 1 µM, 4 days, 1 µM",107.85% and 101.84%
same,viability at 0.5 µM,"PDO7; Homo sapiens, 96 h, read-out: Cell viability (%), PDO7, 0.5 µM, 4 d",82.8%
same,viability at 1 µM,"PDO7; Homo sapiens, 96 h, read-out: Cell viability (%), PDO7, 1 µM, 4 days",96.8%
same,Cell viability (%),"PDO7; PDO7, 0.5 µM, 4 d, 0.5 µM",101.04% and 90.15%
same,Cell viability (%),"PDO7; PDO7, 1 µM, 4 days, 1 µM",99.67% and 101.17%
same,Number of cells,KAP^2D cells; 0 h of treatment,41307.05 and 44263.95 and 43595.63 and 48502.24 and 40389.64
same,Number of cells,KAP^2D cells; 12 h of treatment,65088.74 and 77948.45 and 80933.57 and 91775.55 and 95176.94 and 93698.43
same,Number of cells,KAP^2D cells; 24 h of treatment,83699.30 and 94240.25 and 95144.88 and 126855.10 and 130387.80 and 122006.30
same,Number of cells,KAP^2D cells; 36 h of treatment,151900.95 and 118999.57 and 148091.83 and 233974.50 and 200549.50 and 179469.60
same,Number of cells,KAP^2D cells; 48 h of treatment,325693.88 and 295126.41 and 320338.47 and 303856.40 and 287208.10 and 301764.60
same,Number of cells,KAP^2D cells; 60 h of treatment,579787.04 and 516216.51 and 567999.66 and 537469.80 and 457898.40 and 474698.40
same,Cell viability (%),"KAP organoids; Fig. 1g, 0.5 µM, replicates",97.57% and 86.81% and 127.06%
same,Cell viability (%),"KAP organoids; Fig. 1g, 1 µM, replicates",93.70% and 102.05% and 122.58%
same,Cell viability (%),"KAP organoids; Fig. 2b, compound screen, replicates",78.66% and 92.01% and 89.54%
same,Cell viability (%),"KAP organoids; Fig. 1d, 0.5 µM, replicates",86.70% and 72.97%
same,Cell viability (%),"KAP organoids; Fig. 1d, 1 µM, replicates",91.26% and 93.11%
same,Cell viability (%),"KAP organoids; Fig. 1d, 5 µM, replicates",88.80% and 85.26%
same,Cell viability (%),"KAP organoids; Fig. 1d, 10 µM, replicates",80.68% and 88.78% and 66.49%
same,viability at 0.5 µM,"KAP organoids; Mus musculus, 24 h, read-out: Cell viability (%), Fig. 1d, 0.5 µM, replicates",90.7%
same,viability at 1 µM,"KAP organoids; Mus musculus, 24 h, read-out: Cell viability (%), Fig. 1d, 1 µM, replicates",87.6%
same,viability at 5 µM,"KAP organoids; Mus musculus, 24 h, read-out: Cell viability (%), Fig. 1d, 5 µM, replicates",86.5%
same,viability at 1 µM,"KAP organoids; Mus musculus, read-out: Cell viability (% of DMSO), drug screen in KAP organoids, 1 µM concentration, n = 3, mean",86.7%
same,induction of cell death in KAP organoids (in words),KAP organoids; viability assay,only a very weak induction of cell death
